We go through 13 compounds from paper PMC10082729, “First study on in vitro antiviral and virucidal effects of flavonoids against feline infectious peritonitis virus at the early stage of infection” (Veterinary World, 2023).

In one data set the test system is SARS-CoV-2 RdRp. The following applies: in vitro; cited from earlier work.
A short description of a further data set: in vitro. Particulars: cat.
Data set [1] has as its system FIPV. As to the kind of experiment: Post-viral entry assay, viral load by RT-qPCR. It counts as cell-based, feline infectious peritonitis virus. The following applies: Alphacoronavirus 1, read-out: inhibition of viral copy numbers. The protocol: (§1) Crandell–Rees feline kidney cells were seeded into a 96-well plate at 1.8 × 10^4 cells/well and cultured in MEM containing 7% FBS. Pre-compound, attachment, penetration, post-viral entry, and virucidal assays were performed based on each step of viral infection. […] For the antiviral activity assay, FIPV was used at 50 TCID50/well in all experiments. Crandell–Rees feline kidney cells were inoculated with FIPV and treated with 0.1% DMSO as vehicle control. GC376 (TargetMol®, Wellesley Hills, MA, USA) was used as the FIPV-specific drug control. Three experiments were performed in duplicate wells for each compound.
To determine whether the compounds could inhibit viral replication and translation in the host cells after infection, CRFK cells were inoculated with FIPV at 37°C for 2 h for viral adsorption.
Intracellular and extracellular FIPV from infected CRFK cells was determined using RT-qPCR, as described. […] A standard curve of viral copy numbers was generated from the plasmid containing the FIPV 3′UTR sequence by 10-fold serially diluting the plasmid from […] plasmid molecules/μL and using it for viral load quantification. Quantitative polymerase chain reaction was performed from two biological replicates and three independent experiments were performed.
A general note: Real-time PCR tracks product formation cycle by cycle.

Data set [2] concerns FIPV. As to the kind of experiment: Cotreatment (virucidal) assay, IPMA. Particulars: Alphacoronavirus 1, FIPV and compound coincubated with cells at 37°C for 2 h, 24 h. In kind it is cell-based, feline infectious peritonitis virus.
The test system of data set [3] is FIPV. As to the kind of experiment: Virucidal effect at different time points, TCID50 titration. Particulars: 75 μM, direct incubation with FIPV at 37°C, compared with untreated control. It counts as cell-based, feline infectious peritonitis virus. The protocol: Feline infectious peritonitis virus inoculum at 50 TCID50/mL was directly incubated at the maximum concentrations of the compounds that were non-cytotoxic at 37°C in a 1.5 mL microcentrifuge tube for 0, 15, 30, 60, and 120 min. After the indicated incubation, the mixtures of virus and compounds were immediately subjected to viral titration according to Reed and Muench’s method. Viral titers in compound-treated wells were compared with the untreated control.

For data set [4], the system named is FIPV. As to the kind of experiment: Time-of-addition (ToA) assay, RT-qPCR. It counts as cell-based, feline infectious peritonitis virus.
Another data set concerns SARS-CoV-2. The following applies: in vitro, infected Vero cells; cited from earlier work.
The test system of data set [5] is Foot-and-mouth disease virus. The following applies: in vitro, post-viral entry; cited from earlier work.
The test system of another data set is FMDV 3C^pro. The following applies: cited from earlier work.
Data set [6] has as its system Foot-and-mouth disease virus. Particulars: virus and compound cotreated before incubating with cells; read-out: EC50 (virucidal, cotreatment); cited from earlier work.
Data set [7] has as its system CRFK cells. As to the kind of experiment: Cell cytotoxicity and cell viability (MTS assay). The following applies: 24 h. (Tetrazolium dyes change colour on reduction, which living cells bring about.)
Data set [8] has as its system FIPV. As to the kind of experiment: Post-viral entry assay, FIPV-infected cells by IPMA. The following applies: for selectivity ratio at 24 h: cat.
The subject of the next data set is Zika virus. Set-up: method as in PMID 27344138. The following applies: in vitro; cited from earlier work.
In a further data set the test system is Hepatitis B virus. Particulars: in vitro; cited from earlier work.
Another data set has as its system SARS-CoV-2 3CL^pro. More on the design: method as in PMID 32963564. Particulars: in vitro; cited from earlier work.
Data set [9] concerns FIPV. As to the kind of experiment: Pre-compound assay. Particulars: cells pretreated 2 h, then FIPV 2 h, 24-HPI, crystal violet and IPMA. It counts as cell-based, feline infectious peritonitis virus.
In data set [10] the test system is FIPV. As to the kind of experiment: Attachment assay. In kind it is cell-based, feline infectious peritonitis virus. The following applies: co-adsorbed at 4°C for 1 h, 24-HPI. The protocol:
as §1
To determine whether the compounds could interfere with virus binding to the host cells, CRFK cells in a 96-well plate were prechilled at 4°C for 1 h, and cotreated with the FIPV inoculum and the diluted compounds or controls at 4°C for 1 h to allow virus binding, but not entry to the host cells.
For initial screening, FIPV infection was determined using crystal violet staining for all antiviral assays. Briefly, the supernatants were removed from the compound-treated and FIPV-infected CRFK and control cells, and the cells were fixed with cold methanol at room temperature (25°C) for 30 min. […] Five to ten images of positive FIPV-infected cells were recorded at a magnification of 100× using a phase-contrast inverted microscope (Olympus IX73). […]

For data set [11], the system named is FIPV. As to the kind of experiment: Penetration assay. It counts as cell-based, feline infectious peritonitis virus. The following applies: FIPV bound at 4°C 1 h, compound added at 37°C, 24 h.
A further data set concerns FIPV 3CL^pro. The following applies: cited from earlier work.
A further data set concerns Influenza A virus. The following applies: in vitro; cited from earlier work.
The next data set deals with Enterovirus A71. Set-up: method as in PMID 19537794. Particulars: in vitro, at 10 µM; cited from earlier work.
Data set [12] has as its system Human immunodeficiency virus reverse transcriptase. Set-up: method as in PMID 21730371. Particulars: in vitro; cited from earlier work.
The test system of data set [13] is Herpes simplex virus type 1. Particulars: in vitro; cited from earlier work.
Data set [14] deals with SARS-CoV 3a channel protein. The following applies: in vitro; cited from earlier work.
Data set [15] relates to CRFK cells. Particulars: cat, 24 h.
For data set [16], the system named is Coxsackievirus B3. More on the design: method as in PMID 24963331. The following applies: in vitro; cited from earlier work.
The test system of data set [17] is Coxsackievirus B3. More on the design: method as in PMID 24963331. The following applies: cited from earlier work.
The mark [18] stands for this setting: post-viral entry, FIPV 50 TCID50/well in CRFK cells, 24-HPI, IPMA.

Converted amounts (≈) assume the structure as drawn. Like-named read-outs stand apart in the source and are kept apart here. A value given as a limit tells only on which side of the number the result lay.

Usually IC50 stands for the concentration that gives 50% inhibition. Consider `O=c1c(O)c(-c2ccc(O)c(O)c2)oc2cc(O)cc(O)c12` [Quercetin], for which the IC50 in the data set with SARS-CoV-2 RdRp was 6.9 µM. In “in vitro”, this compound gave a CC50 at 24 h greater than 200 µM.
In the data set “in vitro” (CC50), `C[C@@H]1O[C@@H](OC[C@H]2O[C@@H](Oc3c(-c4ccc(O)c(O)c4)oc4cc(O)cc(O)c4c3=O)[C@H](O)[C@@H](O)[C@@H]2O)[C@H](O)[C@H](O)[C@H]1O` [Rutin] had a CC50 at 24 h greater than 200 µM.
By inhibition is commonly meant the drop in the measured response relative to a control, in per cent. As a reminder, the EC50 is the concentration at which the effect is half-maximal. As usually defined, the viability is a read-out of living cells in per cent, often relative to untreated cells. A lower viability goes with a greater loss of cells. The term EC90 denotes the point of the concentration-response curve where the effect stands at 90%. Low values mean an effect from little substance, high ones a need for much substance. Consider `COc1ccc(-c2cc(=O)c3c(O)cc(O)c(-c4cc(-c5cc(=O)c6c(O)cc(O)cc6o5)ccc4OC)c3o2)cc1` [Isoginkgetin], for which, in the data set with FIPV [1], the inhibition at 10 µM is greater than 90%. Besides, the EC50 in the data set on FIPV [2] was 40.6 ± 1.5 µM; with SARS-CoV-2, 22.8 µM; in [5], 1.93 ± 0.21 µM; in data set [6], 2.01 ± 0.07 µM; in the data set on FIPV [8] (Alphacoronavirus 1, CRFK) it was 4.77 ± 0.09 µM. In addition, the entries for the “decrease of viral titer” value in the data set with FIPV [3] (60 min) and in the data set with FIPV [3] (120 min) were 2 log10 TCID50/mL and 1.89 log10 TCID50/mL, respectively. Besides, the “time of addition of maximal efficiency” value in the data set on FIPV [4] (28.82 μM, harvested at 10-HPI, RT-qPCR) is 2–4 HPI. The “effect on FIPV” value in the data set on FIPV [4] (added at 0-HPI, 28.82 μM, RT-qPCR at 10-HPI) is “major inhibitory effect”. In addition, the “time of addition at which FIPV replication is inhibited” value with FIPV [4] (compound at EC90, harvested at 10-HPI, RT-qPCR) is recorded as 0–6 HPI. Moreover, the IC50 with FMDV 3C^pro is 39 µM. The CC50 at 24 h in the data set “in vitro” amounted to 199.4 ± 0.33 µM. The compound also yielded a viability at 24 h, 75 µM in the data set “in vitro” of no less than 90%. In addition, the CC10 with CRFK cells [7] is given as 77.43 ± 2.52 µM. Further, in the data set with FIPV [8] (Alphacoronavirus 1, CRFK), the EC90 was 28.8 ± 1.46 µM. For the same compound, in the data set with FIPV [8] (Selective index CC50/EC50, post-viral entry, CRFK cells), the selectivity ratio at 24 h came out at 41.8.
For the compound `O=C(O[C@@H]1Cc2c(O)cc(O)cc2O[C@@H]1c1cc(O)c(O)c(O)c1)c1cc(O)c(O)c(O)c1` [Epigallocatechin gallate], the 50% effective concentration (EC50) in the data set on Zika virus was 21.4 µM; in the data set on Hepatitis B virus, less than 10 µM; in the data set on FIPV [8] (setting [18]), 79.07 ± 0.01 µM. For the same compound, the IC50 with SARS-CoV-2 3CL^pro was 7.58 µg/mL (≈ 16.5 µM). The compound also came in with a CC10 with CRFK cells [7] of 84.98 ± 1.93 µM. The same compound returned a CC50 in the data set with CRFK cells [7] of 282.2 ± 0.12 µM. In addition, the “Selective index CC50/EC50” value in the data set on FIPV [8] (post-viral entry, CRFK cells) was 3.57. Besides, the EC90 in the data set with FIPV [8] (setting [18]) amounted to 196.5 ± 1.96 µM.
On to `CC(C)C[C@H](NC(=O)OCc1ccccc1)C(=O)N[C@@H](C[C@@H]1CCNC1=O)C(O)S(=O)(=O)[O-].[Na+]` (stereo partly drawn) [GC376], for which, in the data set with FIPV [9], the “cell protection (prophylactic) effect” value is “did not possess the prophylactic and virus attachment effects”. Also, in the data set on FIPV [10], the “effect on FIPV binding (attachment)” value was “did not possess the prophylactic and virus attachment effects”. The “effect on FIPV penetration” value in the data set on FIPV [11] is listed as “inhibited FIPV replication at high concentrations of up to 50 μM”.
As to `COc1cc(O)c2c(=O)cc(-c3ccc(O)c(O)c3)oc2c1` [7-methylluteolin], the IC50 in the data set on FIPV 3CL^pro is 28.5 ± 4.2 µM.
Consider `O=c1c(-c2ccc(O)cc2)coc2c([C@@H]3O[C@H](CO)[C@@H](O)[C@H](O)[C@H]3O)c(O)ccc12` [Puerarin], for which the EC50 with Influenza A virus is 52.1 µM. In the data set “in vitro” (CC50), this compound displayed a CC50 at 24 h of 195 µM.
On to `O=C(O[C@@H]1Cc2c(O)cc(O)cc2O[C@H]1c1cc(O)c(O)c(O)c1)c1cc(O)c(O)c(O)c1` [Gallocatechin Gallate], for which, in the data set with Enterovirus A71, the virus reduction is given as 56%. Moreover, the EC50 in [12] is 3.5 µM. The CC50 at 24 h in the data set “in vitro” was greater than 200 µM.
Consider Epicatechin-3-O-gallate, for which the 50% effective concentration (EC50) in [13] was 4 µM.
On to `O=C(/C=C/c1ccc(O)cc1)OC[C@H]1O[C@@H](Oc2c(-c3ccc(O)cc3)oc3cc(O)cc(O)c3c2=O)[C@H](O)[C@@H](O)[C@@H]1O` [Tiliroside], for which, in data set [14], the IC50 was 20 µM. For the same compound, in “in vitro”, the CC50 at 24 h was 65.2 µM.
In the data set with CRFK cells [15], `O=c1cc(-c2ccc(O)c(-c3c(O)cc(O)c4c(=O)cc(-c5ccc(O)cc5)oc34)c2)oc2cc(O)cc(O)c12` [Amentoflavone] came in with a CC10 of 155.50 ± 2.19 µM. Besides, the EC50 is 25 µM in the data set on Coxsackievirus B3 [16]; 11.1 to 28.2 µM in data set [13]; 144.1 ± 0.01 µM with FIPV [8] (Alphacoronavirus 1, CRFK). In addition, in the data set with Coxsackievirus B3 [17], the “IC50 (virucidal)” value was 19 to 41 µg/mL. The CC50 at 24 h in the data set “in vitro” (CC50) was found to be 197 ± 2.29 µM. The same compound showed an EC90 with FIPV [8] (Alphacoronavirus 1, CRFK) of 242.9 ± 2.4 µM. In addition, in the data set with FIPV [8], the selectivity ratio at 24 h stood at 1.37.
As to `O=c1cc(-c2ccc(O)cc2)oc2cc(O)cc(O)c12` [Apigenin], the EC50 in the data set on Influenza A virus was 5 to 20 µM. Besides, the CC50 at 24 h in “in vitro” (CC50) amounted to 22.2 µM.
For the compound `COc1ccc([C@@H]2CC(=O)c3c(O)cc(O[C@@H]4O[C@H](CO[C@@H]5O[C@@H](C)[C@H](O)[C@@H](O)[C@H]5O)[C@@H](O)[C@H](O)[C@H]4O)cc3O2)cc1O` [Hesperidin], in the data set on Influenza A virus, the viral titer reduction entry is “Influenza A virus (in vitro: viral titer reduction at 3 log10 TCID50/0.1 mL)”.
